Here are results for three compounds from ChEMBL document CHEMBL1201862, “PubChem BioAssay data set” (2004).

SMILES strings stand for the structures. The source made the active and inactive calls.

Common to all, as to format: functional
The target of experiment [1] is 5-hydroxytryptamine receptor 5A (Homo sapiens, UniProt P47898). Briefly: Counterscreen for agonists of OPRM1-OPRD1 heterodimerization: luminescence-based cell-based high throughput dose response assay to identify agonists of 5-hydroxytryptamine (serotonin) 5A receptor (HTR5A). [Related pubchem assays (depositor defined):AID504326, AID504355, AID504692, AID504904, AID504905]. (In general: A counterscreen serves to expose hits that act by an unwanted route or on another target.)

In experiment [2] the target is Ras and Rab interactor 1/Tyrosine-protein kinase ABL1 (Homo sapiens, UniProt P00519+Q13671).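 Note: biochemical TR-FRET dose-response test measuring inhibition of binding between Rin1 and Abl proteins.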
Experiment [3] addresses T1, Tyrosine-protein phosphatase non-receptor type 22 (Homo sapiens, UniProt Q9Y2R2).
T1 sequence (Q9Y2R2 whole entry): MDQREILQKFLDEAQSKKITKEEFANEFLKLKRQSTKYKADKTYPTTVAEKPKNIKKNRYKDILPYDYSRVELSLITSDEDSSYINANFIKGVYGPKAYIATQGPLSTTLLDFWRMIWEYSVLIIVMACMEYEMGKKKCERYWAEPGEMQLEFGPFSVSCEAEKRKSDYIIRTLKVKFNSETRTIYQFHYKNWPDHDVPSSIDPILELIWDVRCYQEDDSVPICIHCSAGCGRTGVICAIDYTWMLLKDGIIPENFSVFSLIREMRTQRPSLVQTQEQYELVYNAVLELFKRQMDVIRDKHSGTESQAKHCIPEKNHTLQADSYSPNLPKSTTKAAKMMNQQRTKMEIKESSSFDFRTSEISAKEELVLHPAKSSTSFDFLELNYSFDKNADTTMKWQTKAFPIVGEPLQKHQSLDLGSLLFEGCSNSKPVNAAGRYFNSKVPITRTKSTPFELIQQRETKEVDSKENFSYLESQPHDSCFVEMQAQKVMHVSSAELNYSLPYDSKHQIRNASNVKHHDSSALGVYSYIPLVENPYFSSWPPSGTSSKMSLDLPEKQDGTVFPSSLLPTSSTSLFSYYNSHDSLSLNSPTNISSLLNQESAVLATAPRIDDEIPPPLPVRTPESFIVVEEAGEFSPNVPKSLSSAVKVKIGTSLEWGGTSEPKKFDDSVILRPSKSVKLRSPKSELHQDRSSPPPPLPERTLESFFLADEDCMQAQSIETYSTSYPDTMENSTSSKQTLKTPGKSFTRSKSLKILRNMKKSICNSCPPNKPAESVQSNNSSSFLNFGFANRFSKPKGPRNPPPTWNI

The target of another experiment is T2, Caspase-3 (Homo sapiens, UniProt P42574).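 Note: Dose-response selectivity test against caspase-3 for candidate inhibitors of sentrin-specific proteases (SENPs).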
T2 sequence (P42574 whole entry): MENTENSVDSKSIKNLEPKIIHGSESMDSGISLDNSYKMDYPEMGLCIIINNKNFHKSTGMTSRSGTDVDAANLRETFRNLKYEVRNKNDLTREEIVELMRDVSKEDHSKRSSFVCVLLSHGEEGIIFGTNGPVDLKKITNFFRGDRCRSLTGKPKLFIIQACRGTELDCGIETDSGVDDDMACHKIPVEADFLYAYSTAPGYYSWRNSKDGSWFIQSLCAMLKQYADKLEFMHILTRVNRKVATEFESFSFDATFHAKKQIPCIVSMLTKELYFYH

The target in experiment [4] is T3, Testis-specific serine/threonine-protein kinase 2 (Homo sapiens, UniProt Q96PF2).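 Note: part of the Navigating the Kinome panel, target entry STK22B.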
T3 sequence (Q96PF2 whole entry): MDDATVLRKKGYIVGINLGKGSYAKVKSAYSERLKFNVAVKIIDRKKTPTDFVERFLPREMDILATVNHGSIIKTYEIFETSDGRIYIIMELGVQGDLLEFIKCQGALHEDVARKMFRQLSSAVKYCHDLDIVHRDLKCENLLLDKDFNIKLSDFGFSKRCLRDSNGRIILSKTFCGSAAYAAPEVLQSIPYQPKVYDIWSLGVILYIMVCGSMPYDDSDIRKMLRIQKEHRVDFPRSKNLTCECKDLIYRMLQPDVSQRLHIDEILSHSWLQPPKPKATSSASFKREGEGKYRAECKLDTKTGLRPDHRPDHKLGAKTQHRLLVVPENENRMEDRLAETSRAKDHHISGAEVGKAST

The target of experiment [5] is Testis-specific serine/threonine-protein kinase 1 (Homo sapiens, UniProt Q9BXA7).
Experiment [6] addresses Serine/threonine-protein kinase Nek4 (Homo sapiens, UniProt P51957).
Experiment [7] addresses Calcium/calmodulin-dependent protein kinase type II subunit gamma (Homo sapiens, UniProt Q13555).
Experiment [8] has as its target Receptor tyrosine-protein kinase erbB-2 (Homo sapiens, UniProt P04626). Briefly: Navigating the Kinome. Panel member name: ERBB2.
In the next experiment the target is SRSF protein kinase 1 (Homo sapiens, UniProt Q96SB4).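 Note: measured as one member of a kinome-wide kinase profiling panel.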
In experiment [9] the target is Mitogen-activated protein kinase kinase kinase 20 (Homo sapiens, UniProt Q9NYL2).
For experiment [10], the target named is Homeodomain-interacting protein kinase 4 (Homo sapiens, UniProt Q8NE63).
In experiment [11] the target is PAS domain-containing serine/threonine-protein kinase (Homo sapiens, UniProt Q96RG2).
The target of experiment [12] is Rho-associated protein kinase 1 (Homo sapiens, UniProt Q13464).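 Note: measured within a broad kinome-wide panel profiling many kinases.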
The target in experiment [13] is Cell division cycle 7-related protein kinase (Homo sapiens, UniProt O00311).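 Note: value obtained from a kinome-wide kinase panel.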
Experiment [14] deals with Tyrosine-protein kinase JAK2 (Homo sapiens, UniProt O60674).

Chain of Mitogen-activated protein kinase kinase kinase 20 (Q9NYL2 whole entry): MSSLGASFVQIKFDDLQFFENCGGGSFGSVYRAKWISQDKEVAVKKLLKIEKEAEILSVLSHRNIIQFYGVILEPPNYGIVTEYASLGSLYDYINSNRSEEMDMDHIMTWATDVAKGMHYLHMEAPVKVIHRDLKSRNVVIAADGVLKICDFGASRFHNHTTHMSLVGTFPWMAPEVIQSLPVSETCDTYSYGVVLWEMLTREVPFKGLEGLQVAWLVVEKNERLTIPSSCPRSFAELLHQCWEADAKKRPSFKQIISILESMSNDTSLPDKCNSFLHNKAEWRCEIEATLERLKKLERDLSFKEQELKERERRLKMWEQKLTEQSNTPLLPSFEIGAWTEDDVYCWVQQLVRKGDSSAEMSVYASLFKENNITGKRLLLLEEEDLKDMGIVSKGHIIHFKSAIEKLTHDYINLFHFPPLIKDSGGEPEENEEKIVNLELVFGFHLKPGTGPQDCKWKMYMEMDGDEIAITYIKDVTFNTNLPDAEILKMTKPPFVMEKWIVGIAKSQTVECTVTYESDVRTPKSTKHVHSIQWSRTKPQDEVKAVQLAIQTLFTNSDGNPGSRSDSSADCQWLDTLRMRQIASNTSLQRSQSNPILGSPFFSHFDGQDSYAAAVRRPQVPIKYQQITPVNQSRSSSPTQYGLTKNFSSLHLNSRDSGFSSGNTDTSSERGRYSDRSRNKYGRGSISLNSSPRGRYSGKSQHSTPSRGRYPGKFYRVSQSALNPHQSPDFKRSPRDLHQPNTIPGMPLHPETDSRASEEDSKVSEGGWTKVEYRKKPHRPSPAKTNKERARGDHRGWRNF
Chain of Rho-associated protein kinase 1 (Q13464 whole entry): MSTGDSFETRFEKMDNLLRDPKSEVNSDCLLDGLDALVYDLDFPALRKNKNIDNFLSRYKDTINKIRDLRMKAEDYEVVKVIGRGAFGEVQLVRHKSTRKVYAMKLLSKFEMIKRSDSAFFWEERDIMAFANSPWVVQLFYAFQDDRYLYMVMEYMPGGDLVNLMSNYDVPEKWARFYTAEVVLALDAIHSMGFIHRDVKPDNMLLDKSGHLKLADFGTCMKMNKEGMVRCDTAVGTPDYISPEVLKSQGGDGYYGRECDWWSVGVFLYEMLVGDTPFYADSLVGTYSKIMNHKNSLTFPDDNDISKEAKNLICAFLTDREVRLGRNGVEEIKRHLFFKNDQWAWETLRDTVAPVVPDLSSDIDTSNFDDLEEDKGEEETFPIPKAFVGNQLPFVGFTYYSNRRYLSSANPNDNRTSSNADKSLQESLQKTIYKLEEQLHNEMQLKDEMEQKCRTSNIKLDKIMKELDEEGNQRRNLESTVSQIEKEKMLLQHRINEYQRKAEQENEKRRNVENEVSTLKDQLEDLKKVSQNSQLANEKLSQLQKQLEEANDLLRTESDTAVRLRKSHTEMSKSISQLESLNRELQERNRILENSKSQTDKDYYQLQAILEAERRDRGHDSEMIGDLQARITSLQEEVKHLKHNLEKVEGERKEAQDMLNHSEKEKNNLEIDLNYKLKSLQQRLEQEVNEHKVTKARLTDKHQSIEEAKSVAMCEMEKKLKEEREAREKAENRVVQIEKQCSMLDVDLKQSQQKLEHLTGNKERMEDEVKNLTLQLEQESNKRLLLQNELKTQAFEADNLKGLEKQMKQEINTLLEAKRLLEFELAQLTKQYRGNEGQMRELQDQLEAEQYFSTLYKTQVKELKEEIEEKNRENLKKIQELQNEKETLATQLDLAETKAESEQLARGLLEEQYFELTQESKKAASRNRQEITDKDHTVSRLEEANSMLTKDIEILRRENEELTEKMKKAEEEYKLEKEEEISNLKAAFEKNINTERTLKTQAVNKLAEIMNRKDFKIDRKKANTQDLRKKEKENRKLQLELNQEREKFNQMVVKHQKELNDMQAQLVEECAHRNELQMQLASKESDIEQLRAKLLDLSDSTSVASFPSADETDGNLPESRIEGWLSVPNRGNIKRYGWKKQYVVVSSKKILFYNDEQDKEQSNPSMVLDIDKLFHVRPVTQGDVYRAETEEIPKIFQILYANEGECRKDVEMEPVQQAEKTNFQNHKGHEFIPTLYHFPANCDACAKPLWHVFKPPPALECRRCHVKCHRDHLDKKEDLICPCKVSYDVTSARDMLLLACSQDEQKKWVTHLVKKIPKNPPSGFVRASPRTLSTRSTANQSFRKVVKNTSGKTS
Chain of PAS domain-containing serine/threonine-protein kinase (Q96RG2 whole entry, the tested form may be a part): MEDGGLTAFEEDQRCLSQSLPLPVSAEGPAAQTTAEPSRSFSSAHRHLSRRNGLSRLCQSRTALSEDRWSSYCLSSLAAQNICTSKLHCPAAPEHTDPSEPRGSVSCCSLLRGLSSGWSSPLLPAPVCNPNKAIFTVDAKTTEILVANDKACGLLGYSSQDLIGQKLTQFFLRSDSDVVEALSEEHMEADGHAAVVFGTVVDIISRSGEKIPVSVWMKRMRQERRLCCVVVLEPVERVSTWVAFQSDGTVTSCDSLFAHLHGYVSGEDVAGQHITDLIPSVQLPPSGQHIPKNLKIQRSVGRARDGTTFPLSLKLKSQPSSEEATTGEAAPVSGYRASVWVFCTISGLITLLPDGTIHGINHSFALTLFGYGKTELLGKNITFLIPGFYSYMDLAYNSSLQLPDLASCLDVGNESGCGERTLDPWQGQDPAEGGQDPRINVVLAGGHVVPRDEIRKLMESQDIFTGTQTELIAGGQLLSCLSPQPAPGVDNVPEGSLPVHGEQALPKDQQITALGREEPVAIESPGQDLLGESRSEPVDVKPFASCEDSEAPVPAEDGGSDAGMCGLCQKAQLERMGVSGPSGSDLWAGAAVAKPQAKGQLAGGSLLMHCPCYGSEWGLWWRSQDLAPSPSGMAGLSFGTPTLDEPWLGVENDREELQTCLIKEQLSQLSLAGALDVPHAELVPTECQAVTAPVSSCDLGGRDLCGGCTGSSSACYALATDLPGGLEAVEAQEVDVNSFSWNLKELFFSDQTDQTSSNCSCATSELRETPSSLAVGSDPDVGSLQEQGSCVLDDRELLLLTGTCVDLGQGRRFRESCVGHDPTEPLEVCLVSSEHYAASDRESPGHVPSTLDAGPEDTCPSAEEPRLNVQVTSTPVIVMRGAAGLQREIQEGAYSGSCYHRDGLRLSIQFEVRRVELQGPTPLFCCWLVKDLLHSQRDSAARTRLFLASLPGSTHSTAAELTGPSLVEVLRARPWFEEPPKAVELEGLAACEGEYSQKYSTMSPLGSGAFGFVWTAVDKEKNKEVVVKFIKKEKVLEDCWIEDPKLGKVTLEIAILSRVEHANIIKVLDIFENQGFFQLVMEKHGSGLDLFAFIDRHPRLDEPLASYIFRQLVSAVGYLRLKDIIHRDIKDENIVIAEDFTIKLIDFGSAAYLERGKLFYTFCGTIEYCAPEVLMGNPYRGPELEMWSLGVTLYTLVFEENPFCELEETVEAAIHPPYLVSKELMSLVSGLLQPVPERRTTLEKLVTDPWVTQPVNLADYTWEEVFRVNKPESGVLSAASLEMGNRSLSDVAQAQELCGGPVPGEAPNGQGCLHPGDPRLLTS
Chain of Testis-specific serine/threonine-protein kinase 1 (Q9BXA7 whole entry): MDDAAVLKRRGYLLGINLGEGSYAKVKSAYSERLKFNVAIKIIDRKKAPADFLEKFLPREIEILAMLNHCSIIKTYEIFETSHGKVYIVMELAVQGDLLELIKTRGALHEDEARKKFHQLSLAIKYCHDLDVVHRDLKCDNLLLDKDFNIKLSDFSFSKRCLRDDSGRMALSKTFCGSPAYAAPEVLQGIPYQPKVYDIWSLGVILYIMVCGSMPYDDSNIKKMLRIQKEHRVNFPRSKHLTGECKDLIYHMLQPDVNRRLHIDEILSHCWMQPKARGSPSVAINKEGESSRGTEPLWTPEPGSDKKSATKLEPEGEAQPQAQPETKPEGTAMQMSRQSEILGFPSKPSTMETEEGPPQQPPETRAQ
Chain of Cell division cycle 7-related protein kinase (O00311 whole entry): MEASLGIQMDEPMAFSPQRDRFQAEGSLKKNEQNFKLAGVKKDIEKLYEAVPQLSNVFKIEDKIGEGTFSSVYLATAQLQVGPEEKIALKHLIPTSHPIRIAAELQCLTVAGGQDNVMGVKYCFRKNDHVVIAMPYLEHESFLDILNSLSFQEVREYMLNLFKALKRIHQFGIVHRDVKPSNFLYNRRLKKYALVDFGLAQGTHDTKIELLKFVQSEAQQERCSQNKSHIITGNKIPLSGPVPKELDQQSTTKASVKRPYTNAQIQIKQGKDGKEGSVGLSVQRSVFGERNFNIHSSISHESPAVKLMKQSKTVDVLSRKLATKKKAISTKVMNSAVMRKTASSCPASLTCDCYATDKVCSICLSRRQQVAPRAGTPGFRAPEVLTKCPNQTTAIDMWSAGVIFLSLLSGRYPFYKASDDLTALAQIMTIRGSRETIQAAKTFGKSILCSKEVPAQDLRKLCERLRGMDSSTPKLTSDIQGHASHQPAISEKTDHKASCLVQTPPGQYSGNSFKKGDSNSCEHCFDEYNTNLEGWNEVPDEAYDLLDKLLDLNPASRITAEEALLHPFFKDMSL
Chain of Homeodomain-interacting protein kinase 4 (Q8NE63 whole entry, the tested form may be a part): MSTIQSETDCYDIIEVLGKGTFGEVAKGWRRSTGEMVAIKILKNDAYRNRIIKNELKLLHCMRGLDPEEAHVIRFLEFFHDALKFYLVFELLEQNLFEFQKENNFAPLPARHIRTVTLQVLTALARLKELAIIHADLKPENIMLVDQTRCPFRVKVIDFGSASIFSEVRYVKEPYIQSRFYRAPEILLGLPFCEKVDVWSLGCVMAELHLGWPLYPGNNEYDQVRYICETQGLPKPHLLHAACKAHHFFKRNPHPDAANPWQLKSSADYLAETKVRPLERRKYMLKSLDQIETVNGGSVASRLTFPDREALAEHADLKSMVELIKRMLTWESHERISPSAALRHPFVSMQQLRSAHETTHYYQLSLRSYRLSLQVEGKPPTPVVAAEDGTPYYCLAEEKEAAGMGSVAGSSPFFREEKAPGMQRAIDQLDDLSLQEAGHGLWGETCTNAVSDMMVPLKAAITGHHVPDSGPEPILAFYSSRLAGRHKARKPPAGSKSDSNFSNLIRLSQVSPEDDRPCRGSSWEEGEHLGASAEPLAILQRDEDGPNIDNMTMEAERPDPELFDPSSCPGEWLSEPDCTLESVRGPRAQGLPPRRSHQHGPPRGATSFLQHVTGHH

As a reminder, the EC50 is the concentration at which the effect is half-maximal. For orientation: IC50 means the concentration at which inhibition is half-maximal. Consider `CCCc1nc2c(=O)n(C)c(=O)nc-2n(C)n1`, for which the EC50 in experiment [1] was > 92.5 µM (inactive). The results for the IC50 in experiment [2] and in [3] were 0.527 µM (active) and 1.78 µM (active), respectively.
With `CC(=O)c1ccc(NC2=C(N3CCOCC3)C(=O)c3ccccc3C2=O)cc1`, at Caspase-3, the IC50 is 30 µM (active).
The term Ki denotes the dissociation constant of the complex between target and ligand, obtained from inhibition or displacement. For `COc1cc2ncn(-c3cc(OCc4ccccc4C(F)(F)F)c(C(N)=O)s3)c2cc1OC` [GW843682X], the inhibitory constant (Ki) in [4] was 0.0631 µM (active); in experiment [5] it was 0.2 µM (active); in experiment [6], > 6.31 µM (inactive); in experiment [7], > 6.31 µM (inactive); in experiment [8], 1 µM (active); on SRSF protein kinase 1, > 7.94 µM (inactive). Also, the Ki is > 7.94 µM (inactive) in experiment [9]; > 7.94 µM (inactive) in experiment [10]; > 1.58 µM (inactive) in experiment [11]; > 10 µM (inactive) in experiment [12]; > 1.26 µM (inactive) in experiment [13]; 1.26 µM (active) in experiment [14].
